Columns and labels:
[1] = set-up: method as in PMID 16551570; conditions: oral; cited from earlier work
[2] = set-up: method as in PMID 7666987; conditions: 5-year period; cited from earlier work
[3] = Open stability study (25 °C, 60% RH, open conditions); assay type: physicochemical; conditions: after 4 weeks, content at day 0 set as 100%
Description: Open stability was conducted at 25 °C, 60% RH, under open conditions without package and nitrogen protection. Accelerated stability was conducted at 40 °C, 75% RH, packaged with aluminum foil bags. The ubiquinol polymorph II and UQ-NC cocrystal were taken out at various intervals during exposure (open stability at 0, 3, 7, 14, 21, and 28 days and accelerated stability at 0, 1, 2, 3, and 6 months).
An Agilent 1260 series HPLC was used to determine the content of ubiquinol. The HPLC was equipped with a quaternary pump (G1311C), diode-array detector (G1315D), and a 4.6 mm × 100 mm, 2.7 μm packing L1 column. The detector was set at 290 nm. A mobile phase consisting of methanol and n-hexane (85/15, v/v) was run for 10 min at 1.5 mL/min. An injection of 20 μL was performed and the column temperature was set at 35 °C.

[4] = Powder dissolution in simulated intestinal fluid (SIF) with 0.5% tween 80; assay type: physicochemical; conditions: SIF with 0.5% tween 80, 37 °C, up to 180 min
Description: (§1) Powder dissolution experiments were conducted in simulated intestinal fluid (SIF) and simulated gastric fluid (SGF) with 0.5% tween 80 at 37 °C using a Mini-Bath dissolution device equipped with a Julabo ED-5 heater/circulator. SIF was prepared by dissolving 6.8 g of KH2PO4 in 500 mL of water and then the pH was adjusted to 6.8 with 0.1 mol/L og NaOH solution. In total, 10 g of pancreatin was added and finally the solution was diluted to 1000 mL with water to obtain the SIF. SGF was prepared by mixing 16.4 mL of 10% HCl solution, 800 mL of water, and 10g of pepsin. Finally, the solution was diluted to 1000 mL with water to obtain the SGF. A total of 9.3 mg of cocrystal and 8.2 mg of polymorph II were added into 20 mL of the buffer solution. The stirring speed was set to 75 rpm. To minimize the size effect on the dissolution results, the ubiquinol cocrystal and polymorph II were sieved through 80-mesh sieves. Samples were collected at 5, 15, 20, 25, 30, 40, 50, 60, 80, 130, and 180 min each time, and were filtered through the 0.45 μm nylon filters. The concentration of ubiquinol was determined using HPLC. The detailed HPLC analysis method is described in Section 2.10.
(§2) An Agilent 1260 series HPLC was used to determine the content of ubiquinol. The HPLC was equipped with a quaternary pump (G1311C), diode-array detector (G1315D), and a 4.6 mm × 100 mm, 2.7 μm packing L1 column. […]

[5] = Powder dissolution in simulated gastric fluid (SGF) with 0.5% tween 80; assay type: physicochemical; conditions: SGF with 0.5% tween 80, 37 °C, up to 180 min
Description: as §1, §2

[6] = Pharmacokinetic study in male Sprague Dawley rats, plasma total coenzyme Q10; assay type: in vivo; conditions: rat, gavage, 100 mg/kg as ubiquinol equivalents
Description: Pharmacokinetic experiments were conducted on male Sprague Dawley rats to compare the oral exposure of the UQ-NC cocrystal and the ubiquinol marketed form II. The two ubiquinol samples were dispersed homogeneously in 0.5% CMC-Na (sodium carboxymethylcellulose) and 0.5% tween 80 aqueous solution to obtain the suspension of 10 mg/mL of ubiquinol. Twelve male Sprague Dawley rats weighing […] were randomly allocated into two groups (six rats in each group). Each received gavage administration at a dose of 100 mg/kg body (expressed as ubiquinol equivalents). After this administration, approximately 200 μL of blood sample was collected from the orbital sinus into heparinized tubes at 0, 1, 2, 3, 4, 6, 8, and 24 h for each rat.
In this experiment, the whole process was protected from light. An aliquot of 100 µL of plasma sample was added to 100 µL of p-benzoquinone and then placed for 10 min after vortex mixing. Next, a 400 µL methanol solution containing 1 µg/mL of IS Q9 and 1mL of n-hexane was added. The mixture was vortexed for 5 min and centrifuged at 14,000 rpm for 1 min. In total, 0.825 mL of the upper extract was transferred and dried under the condition of 30 °C nitrogen, and 200 µL of ethanol equal solution was added for re dissolution, vortexed, and mixed well. An aliquot of 4.00 µL of supernatant was injected for an LC-MS/MS analysis.
The quantification of coenzyme Q10 in the plasma samples was accomplished using an AB Sciex Triple Quad 4500 LC-MS instrument manufactured by SCIEX Co., Ltd., Framingham, MA, USA. Chromatography consisted of a Column NO.ZORBAX Eclipse Plus C18 (50 mm × 4.6 mm, 1.8 μm). The mobile phase consisted of acetonitrile and alcohol (50/50, v/v) at a flow rate of 1.0 mL min-1. An injection of 10 μL was performed and the column temperature was set to 40 °C. The detector was set at 290 nm. Multiple reaction monitoring modes (MRM) were used to perform the detection and quantification, with m/z 863.8→197.4 for coenzyme Q10. The DAS 2.0 program was used to perform the PK analysis.

[7] = set-up: method as in earlier work; conditions: after four weeks, open conditions, 25 °C; cited from earlier work
[8] = set-up: method as in doi:10.1016/j.jff.2008.09.010; conditions: single 100 mg/day dose, individuals of >60 years; cited from earlier work
[9] = 200 mg/day with a main meal, 2-week supplementation, ten older men; cited from earlier work
human dermal fibroblasts = test system: human dermal fibroblasts; set-up: method as in PMID 33482334; conditions: compared to ubiquinone; cited from earlier work
[10] = set-up: method as in PMID 19096107; conditions: patients changed from ubiquinone to ubiquinol; cited from earlier work
[11] = set-up: method as in PMID 33673604; conditions: 1500 mg/day, multiple-system atrophy; cited from earlier work

Compound: COC1=C(OC)C(=O)C(C/C=C(\C)CC/C=C(\C)CC/C=C(\C)CC/C=C(\C)CC/C=C(\C)CC/C=C(\C)CC/C=C(\C)CC/C=C(\C)CC/C=C(\C)CCC=C(C)C)=C(C)C1=O [CoQ10, Coenzyme Q10]
- orally administered absorption efficiency [1]: 2–3%

Compound: NC(=O)c1cccnc1 [nicotinamide]
- reduction in the development of insulin-dependent diabetes mellitus [2]: 50%

Compound: COc1c(O)c(C)c(C/C=C(\C)CC/C=C(\C)CC/C=C(\C)CC/C=C(\C)CC/C=C(\C)CC/C=C(\C)CC/C=C(\C)CC/C=C(\C)CC/C=C(\C)CCC=C(C)C)c(O)c1OC [polymorph I, ubiquinol]
- assay value of ubiquinol [3]: 28.3%

Compound: COc1c(O)c(C)c(C/C=C(\C)CC/C=C(\C)CC/C=C(\C)CC/C=C(\C)CC/C=C(\C)CC/C=C(\C)CC/C=C(\C)CC/C=C(\C)CC/C=C(\C)CCC=C(C)C)c(O)c1OC [polymorph II, ubiquinol]
- assay value of ubiquinol [3]: 94.2%
- AUC (dissolution) [4]: 4500 µg·h/mL
- Cmax (dissolution, ubiquinol concentration) [4]: 90000 ng/mL
- AUC (dissolution) [5]: 1500 µg·h/mL
- Cmax (dissolution, ubiquinol concentration) [5]: 30000 ng/mL
- AUC0–8h [6]: 0.1919 µg·h/mL
- Cmax [6]: 71.2 ng/mL
- MRT [6]: 43.3 h
- T1/2 [6]: 29.9 h
- Tmax [6]: 8.0 h
- ubiquinol transformed to ubiquinone [7]: about 6.9%

Compound: COc1c(O)c(C)c(C/C=C(\C)CC/C=C(\C)CC/C=C(\C)CC/C=C(\C)CC/C=C(\C)CC/C=C(\C)CC/C=C(\C)CC/C=C(\C)CC/C=C(\C)CCC=C(C)C)c(O)c1OC [ubiquinol]
- increase of plasma AUC0–72h compared with ubiquinone [8]: 430%
- plasma AUC0–72h compared with subjects receiving ubiquinone [8]: 4.3 fold
- plasma CoQ10 status [9]: significant increase
- reverting the expression of the senescent phenotype (β-galactosidase positivity, p21, collagen type 1, elastin) (human dermal fibroblasts): more efficient
- symptoms of heart failure [10]: significantly improved
- decline in UMSARS part 2 score compared to placebo [11]: significantly smaller decline
- tolerability [11]: well-tolerated
